For data set [1], the system named is B16 melanoma. As to the kind of experiment: potency distribution in mice with tangled B16 melanoma after IV administration (direct radiometry of organs and tissues). The following applies: for Blood: mice with B16 melanoma; for Urinary bladder: full urinary bladder.
Protocol: (§1) In vivo experiments were conducted using laboratory female mice (F1 CBAxC57B1 hybrids, 18-20g). The animals were obtained from the brooder of the Biomedical Technology Research Centre at the Russian Academy of Medical Sciences in Andreevka. Pigmented B16 mice melanoma was tangled. B16 melanoma cells suspension was administered SC in aseptic conditions. Tumour growth was investigated visually. The animals were enrolled into the experiment 9-12 days after the inoculation, when the tumour diameter was 8-12cm.
(§2) During the experiment the animals were housed in standard conditions (special room, recommended food, free access to fresh water, natural lighting).
(§3) Urinary bladder filling was achieved by suturing the outer urethral orifice. The radioactivity in the sampled organs and tissues was measured by the direct radiometry method. 5 experiments were conducted, at least 3 animals were used for each experimental point.
The next data set in a line: in vivo. The note with it: female, F1 CBAxC57B1 hybrids, mouse, iv, total radioactivity.
In data set [2] the test system is B16 melanoma. The following applies: mouse, in vivo.
Protocol: as §1, §2, §3
Data set [3] in a line: potency distribution in mice with tangled B16 melanoma after IV administration (direct radiometry of organs and tissues). The following applies: female, F1 CBAxC57B1 hybrids, mouse, tumour and muscle, iv, total radioactivity.
Protocol: as §1, §2, §3

Consider five compounds from patent EP2695891B1, “OCTAPEPTIDE, RADIOPHARMACEUTICAL AGENT BASED THEREON AND METHOD FOR DIAGNOSING TUMORS” (Aktsionernoe Obschestvo "Pharm-Sintez", priority 2011, dated 2018).

Read-outs that look alike come from different tables or passages of the source.

Protocol for in vivo: as §1, §2, §3

On to `C[C@@H](O)[C@H](NC(=O)[C@@H]1CSSC[C@H](NC(=O)[C@@H](Cc2ccccc2)NC(=O)CN2CCN(CC(=O)O)CCN(CC(=O)O)CCN(CC(=O)O)CC2)C(=O)N[C@@H](Cc2ccc(O)cc2)C(=O)N[C@H](Cc2c[nH]c3ccccc23)C(=O)N[C@@H](CCCCN)C(=O)N[C@@H]([C@@H](C)O)C(=O)N1)C(=O)O` [DE, marked ^68Ga, metal not drawn, reference compound], for which, in the data set with B16 melanoma [1] (30 min after IV administration), the Kidneys is recorded as 1.6 ± 0.6 % of the administered dose, the Liver was 2.8 ± 1.5 % of the administered dose, the Muscle was found to be 0.6 ± 0.04 %/g and the Tumour was 1.0 ± 0.2 %/g. The Blood in the data set with B16 melanoma [1] (30 min after IV administration) was 2.6 ± 0.5 % of the administered dose. In the data set on B16 melanoma [1] (60 min after IV administration), the Kidneys was 1.6 ± 0.6 % of the administered dose, the Liver was 2.8 ± 0.5 % of the administered dose, the Muscle came to 0.5 ± 0.04 %/g and the Tumour turned out to be 0.5 ± 0.24 %/g. For the same compound, the Blood with B16 melanoma [1] (60 min after IV administration) is 2.6 ± 0.6 % of the administered dose.
For the compound `C[C@@H](O)[C@H](NC(=O)[C@@H]1CSSC[C@H](NC(=O)[C@H](CCCCN)NC(=O)CN2CCN(CC(=O)O)CCN(CC(=O)O)CCN(CC(=O)O)CC2)C(=O)N[C@@H](Cc2ccc(O)cc2)C(=O)N[C@H](Cc2c[nH]c3ccccc23)C(=O)N[C@@H](CCCCN)C(=O)N[C@@H]([C@@H](C)O)C(=O)N1)C(=O)O` [Compound 1a], the tissue to tissue ratio at 1 h in the data set “in vivo” worked out at 7.5. In the data set on B16 melanoma [2], the “accumulation in tumour as compared to ^68Ga-marked DE” value was “larger”, the “blood clearance as compared to ^68Ga-marked DE” value is listed as “faster blood clearance” and the “renal clearance as compared to ^68Ga-marked DE” value is recorded as “faster renal clearance”.
Regarding `C[C@@H](O)[C@H](NC(=O)[C@@H]1CSSC[C@H](NC(=O)[C@H](CCCCN)NC(=O)CN2CCN(CC(=O)O)CCN(CC(=O)O)CCN(CC(=O)O)CC2)C(=O)N[C@@H](Cc2ccc(O)cc2)C(=O)N[C@H](Cc2c[nH]c3ccccc23)C(=O)N[C@@H](CCCCN)C(=O)N[C@@H]([C@@H](C)O)C(=O)N1)C(=O)O` [1a, marked ^68Ga, metal not drawn], the tissue to tissue ratio at 0.5 h in the data set “in vivo” was determined as 2.4.
Regarding `C[C@@H](O)[C@H](NC(=O)[C@@H]1CSSC[C@H](NC(=O)[C@@H](N)CCCCNC(=O)CN2CCN(CC(=O)O)CCN(CC(=O)O)CCN(CC(=O)O)CC2)C(=O)N[C@@H](Cc2ccc(O)cc2)C(=O)N[C@H](Cc2c[nH]c3ccccc23)C(=O)N[C@@H](CCCCN)C(=O)N[C@@H]([C@@H](C)O)C(=O)N1)C(=O)O` [1b, marked ^68Ga, metal not drawn], in the data set with B16 melanoma [1] (30 min after IV administration), the Kidneys is reported as 3.4 ± 0.3 % of the administered dose, the Liver is 1.8 ± 0.7 % of the administered dose, the Muscle turned out to be 0.6 ± 0.1 %/g and the Tumour worked out at 2.5 ± 0.7 %/g. Besides, in the data set with B16 melanoma [1] (30 min after IV administration), the Urinary bladder was 53.4 ± 7.7 % of the administered dose and the Blood is 2.4 ± 0.4 % of the administered dose. In the data set with B16 melanoma [1] (60 min after IV administration), the Kidneys was 5.4 ± 0.6 % of the administered dose, the Liver is given as 1.1 ± 0.1 % of the administered dose, the Muscle was 0.06 ± 0.01 %/g and the Tumour amounted to 1.2 ± 0.2 %/g. Also, in the data set with B16 melanoma [1] (60 min after IV administration), the Urinary bladder is reported as 35.5 ± 3.1 % of the administered dose and the Blood is recorded as 0.5 ± 0.07 % of the administered dose. Moreover, in data set [3], the tissue to tissue ratio at 0.5 h was 4.2.
As to `C[C@@H](O)[C@H](NC(=O)[C@@H]1CSSC[C@H](NC(=O)[C@@H](N)CCCCNC(=O)CN2CCN(CC(=O)O)CCN(CC(=O)O)CCN(CC(=O)O)CC2)C(=O)N[C@@H](Cc2ccc(O)cc2)C(=O)N[C@H](Cc2c[nH]c3ccccc23)C(=O)N[C@@H](CCCCN)C(=O)N[C@@H]([C@@H](C)O)C(=O)N1)C(=O)O` [Compound 1b], the “accumulation in tumour as compared to ^68Ga-marked comparison substance” value in the data set with B16 melanoma [1] (60 min after administration, fold higher than DE) turned out to be 2.4 times. In the data set with B16 melanoma [1] (^68Ga-marked, in words), the “accumulation in tumour as compared to ^68Ga-marked DE” value is on record as “larger”, the “blood clearance as compared to ^68Ga-marked DE” value was “faster blood clearance” and the “renal clearance as compared to ^68Ga-marked DE” value was “faster renal clearance”. Further, the “ratio of accumulation in tumour and muscle as compared to DE” value in the data set on B16 melanoma [1] (both in 30 and in 60 minutes after administration, in words) is “higher”. The tissue to tissue ratio at 1 h in data set [3] came out at 20.
